pIC50: −log10 of the molar value. Like-named read-outs stand apart in the source and are kept apart here. Some results are limits rather than exact numbers.

The target of experiment [1] is His6-ERα298-554 WT (ERα ligand-binding domain) (Homo sapiens (Human), UniProt P03372). Nature of the experiment: Test A: biochemical antagonist activity, LanthaScreen TR-FRET ERα coactivator assay, WT. As to conditions: read-out: Antagonism WT IC50. Summed up:
(§1)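 His6-ERα LBD (0.5 nM) with 0.5 nM Tb-anti-His6 antibody, 250 nM PGC1a peptide and 3 nM (or 10 nM) estradiol in 100 mM potassium phosphate pH 7.4 with 5 mM DTT, incubated overnight at room temperature with compound.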
A general note: In TR-FRET formats the signal depends on donor and acceptor labels being close together.

Experiment [2] has as its target His6-ERα298-554 D538G mutant (ERα ligand-binding domain) (Homo sapiens (Human), UniProt P03372, D538G). Put plainly: Test A: biochemical antagonist activity, LanthaScreen TR-FRET ERα coactivator assay, D538G mutant. The note with it: read-out: Antagonism D538G IC50. In short, it runs like this:
as §1

Experiment [3] concerns the target His6-ERα298-554 Y537S mutant (ERα ligand-binding domain) (Homo sapiens (Human), UniProt P03372, Y537S). Nature of the experiment: Test A: biochemical antagonist activity, LanthaScreen TR-FRET ERα coactivator assay, Y537S mutant. As to conditions: read-out: Antagonism Y537S IC50. In short, it runs like this:
as §1

The test system of experiment [4] is MCF7 cells (breast tumor cells) WT. Put plainly: Test B: cell proliferation/viability assay (CellTiter-Glo) on MCF7 WT. It counts as cell-based. As to conditions: Homo sapiens, MCF7, 168 h, 7 days of compound exposure. Summed up: (§2)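 MCF7 WT / ER mutant lines (estradiol-independent, Tyr537Ser or Asp538Gly); stripped-serum, phenol red-free MEM; 9 pt 1:5 dil, 3-0.000001 μM final; 7 d; CellTiter-Glo RLU → % viability vs untreated, background-subtracted.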

In experiment [5] the test system is MCF7 cells expressing mutant estrogen receptor Tyr 537 Ser. Put plainly: Test B: cell proliferation/viability assay (CellTiter-Glo) on MCF7 Tyr 537 Ser mutant. It counts as cell-based. The note with it: Homo sapiens, MCF7, 168 h, MCF7 cells expressing ER Tyr 537 Ser mutant, 7 days of compound exposure, read-out: proliferation MCF7 Y537S IC50. Summed up: as §2
(In ATP-based viability assays light output follows the ATP content of the culture.)

The test system of experiment [6] is MCF7 cells expressing mutant estrogen receptor Asp 538 Gly. Nature of the experiment: Test B: cell proliferation/viability assay (CellTiter-Glo) on MCF7 Asp 538 Gly mutant. It counts as cell-based. As to conditions: Homo sapiens, MCF7, 168 h, MCF7 cells expressing ER Asp 538 Gly mutant, 7 days of compound exposure, read-out: proliferation MCF7 D538G IC50. Summed up:
as §2

The next experiment deals with ERα in MCF7 cells (Homo sapiens (Human), UniProt P03372). Nature of the experiment: Test C: estrogen receptor degradation activity, ERα in cell western assay in MCF7 cells. It counts as cell-based. The note with it: for DC50: 4 hours post compound addition, ERα in cell western, read-out: Degradation IC50; for % Degradation at 3 μM: 4 hours, relative to fulvestrant. In short, it runs like this: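 Cells seeded in stripped-serum medium are dosed the next day across a nine-concentration series (3 down to 0.000018 μM). Four hours later they are fixed, blocked, probed overnight with anti-ERα antibody, then labelled with an Alexa 488 secondary and a DNA dye before plate scanning.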
Sequence of ERα in MCF7 cells (P03372 whole entry): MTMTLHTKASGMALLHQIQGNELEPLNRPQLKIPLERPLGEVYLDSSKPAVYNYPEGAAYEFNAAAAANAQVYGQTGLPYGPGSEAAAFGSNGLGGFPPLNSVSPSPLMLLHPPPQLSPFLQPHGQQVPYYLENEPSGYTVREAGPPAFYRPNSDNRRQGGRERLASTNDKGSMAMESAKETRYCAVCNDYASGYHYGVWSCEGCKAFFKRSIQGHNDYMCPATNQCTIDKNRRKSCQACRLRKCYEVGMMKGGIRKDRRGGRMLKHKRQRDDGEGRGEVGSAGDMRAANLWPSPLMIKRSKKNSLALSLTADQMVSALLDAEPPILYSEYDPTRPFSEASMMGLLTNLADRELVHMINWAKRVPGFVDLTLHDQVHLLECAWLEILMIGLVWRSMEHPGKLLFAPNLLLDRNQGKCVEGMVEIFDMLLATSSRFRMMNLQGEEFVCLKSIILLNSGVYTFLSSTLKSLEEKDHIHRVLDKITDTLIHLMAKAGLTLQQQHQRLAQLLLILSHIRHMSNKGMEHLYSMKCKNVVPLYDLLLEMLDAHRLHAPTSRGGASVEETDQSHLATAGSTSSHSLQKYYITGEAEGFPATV

[7] abbreviates: asterisk (*): protocol using 10 nM estradiol.

Sequence of His6-ERα298-554 WT (ERα ligand-binding domain) (P03372 298-554): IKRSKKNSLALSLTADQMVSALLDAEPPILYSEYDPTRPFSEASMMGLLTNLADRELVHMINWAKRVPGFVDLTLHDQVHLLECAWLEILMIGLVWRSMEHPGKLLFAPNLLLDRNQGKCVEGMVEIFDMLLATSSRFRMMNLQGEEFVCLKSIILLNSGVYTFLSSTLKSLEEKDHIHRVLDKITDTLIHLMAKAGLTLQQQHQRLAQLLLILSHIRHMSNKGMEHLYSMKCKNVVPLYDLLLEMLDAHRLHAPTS
Sequence of His6-ERα298-554 Y537S mutant (ERα ligand-binding domain) (P03372 298-554 Y537S): as the sequence (P03372 298-554) above, with Y240S counted along it
Sequence of His6-ERα298-554 D538G mutant (ERα ligand-binding domain) (P03372 298-554 D538G): as the sequence (P03372 298-554) above, with D241G counted along it

Turning to `Oc1ccc2c(c1)C(c1ccc(O[C@H]3CCN(CCCF)C3)cc1)=C(c1ccc(OC(F)(F)F)cc1F)CC2` [Example 10, 8-[4-[(3S)-1-(3-fluoropropyl)pyrrolidin-3-yl]oxyphenyl]-7-[2-fluoro-4-(trifluoromethoxy)phenyl]-5,6-dihydronaphthalen-2-ol], the pIC50 is 5.90 in experiment [1] (setting [7]); less than 5.40 in experiment [2] (setting [7]); less than 5.40 in experiment [3] (setting [7]); 7.07 in experiment [4]; less than 6.00 in experiment [5]; 7.54 in experiment [6]. Moreover, on ERα in MCF7 cells, the DC50 worked out at 15 nM. Besides, at ERα in MCF7 cells, the “% Degradation at 3 μM” value stood at 78%.
Take `Cc1ccc(C2=C(c3ccc(O[C@H]4CCN(CCCF)C4)cc3)c3ccc(C(=O)O)cc3SCC2)c(F)c1` [Example 210, 4-(2-fluoro-4-methyl-phenyl)-5-[4-[(3S)-1-(3-fluoropropyl)pyrrolidin-3-yl]oxyphenyl]-2,3-dihydro-1-benzothiepine-8-carboxylic acid]: the pIC50 was 6.99 in experiment [1] (setting [7]); 5.65 in experiment [2] (setting [7]); 5.87 in experiment [3] (setting [7]); 9.10 in experiment [4]; 7.82 in experiment [5]; 9.00 in experiment [6]. The DC50 at ERα in MCF7 cells was 2 nM. For the same compound, the “% Degradation at 3 μM” value on ERα in MCF7 cells was found to be 89%.
For the compound `CCOc1ccc(C2=C(c3ccc(O[C@H]4CCN(CCCF)C4)cc3)c3ccc(O)cc3OCC2)c(Cl)c1` [Example 153, 4-(2-chloro-4-ethoxy-phenyl)-5-[4-[(3S)-1-(3-fluoropropyl)pyrrolidin-3-yl]oxyphenyl]-2,3-dihydro-1-benzoxepin-8-ol], the pIC50 is 8.22 in experiment [1] (setting [7]); 6.93 in experiment [2] (setting [7]); 7.07 in experiment [3] (setting [7]); 9.52 in experiment [4]; 8.52 in experiment [5]; 9.15 in experiment [6]. Further, the DC50 on ERα in MCF7 cells amounted to 0.2 nM. Further, on ERα in MCF7 cells, the “% Degradation at 3 μM” value amounted to 91%.
Regarding `Oc1ccc2c(c1)SCC(c1ccc(OC(F)(F)F)cc1)=C2c1ccc(O[C@H]2CCN(CCCF)C2)nc1` [Example 80, 4-[6-[(3S)-1-(3-fluoropropyl)pyrrolidin-3-yl]oxy-3-pyridyl]-3-[4-(trifluoromethoxy)phenyl]-2H-thiochromen-7-ol], the pIC50 in experiment [1] (setting [7]) was 7.92; in experiment [2] (setting [7]), 6.55; in experiment [3] (setting [7]), 6.81; in experiment [4] it was 9.52; in experiment [5], 8.52; in experiment [6], 9.40. Besides, the DC50 on ERα in MCF7 cells was 0.2 nM. Besides, at ERα in MCF7 cells, the “% Degradation at 3 μM” value is on record as 89%.
As to `CCOc1ccc(C2=C(c3ccc(O[C@H]4CCN(CCCF)C4)cc3)c3ccc(O)cc3SC2)c(F)c1` [Example 26, 3-(4-ethoxy-2-fluoro-phenyl)-4-[4-[(3S)-1-(3-fluoropropyl)pyrrolidin-3-yl]oxyphenyl]-2H-thiochromen-7-ol], the pIC50 is 8.52 in experiment [1] (protocol with 3 nM estradiol); 7.17 in experiment [2] (protocol with 3 nM estradiol); 7.41 in experiment [3] (protocol with 3 nM estradiol); 9.05 in experiment [4]; 8.00 in experiment [5]; 8.70 in experiment [6]. For the same compound, the DC50 on ERα in MCF7 cells amounted to 0.8 nM. At ERα in MCF7 cells, the “% Degradation at 3 μM” value is on record as 90%.
For the compound `COc1ccc(C2=C(c3ccc(O[C@H]4CCN(CCCF)C4)cc3)c3ccc(O)cc3SC2)c(F)n1` [Example 45, 3-(2-fluoro-6-methoxy-3-pyridyl)-4-[4-[(3S)-1-(3-fluoropropyl)pyrrolidin-3-yl]oxyphenyl]-2H-thiochromen-7-ol], the pIC50 in experiment [1] (setting [7]) was 9.00; in experiment [2] (setting [7]), 7.47; in experiment [3] (setting [7]), 7.85; in experiment [4], 10.00; in experiment [5], 8.70; in experiment [6] it was 9.22. Further, on ERα in MCF7 cells, the DC50 worked out at 0.2 nM. The “% Degradation at 3 μM” value on ERα in MCF7 cells was found to be 87%.
Take `Cc1cc(C2=C(c3ccc(O[C@H]4CCN(CCCF)C4)nc3)c3ccc(O)c(F)c3CCC2)ccc1Cl` [Example 250, 6-(4-chloro-3-methyl-phenyl)-1-fluoro-5-[6-[(3S)-1-(3-fluoropropyl)pyrrolidin-3-yl]oxy-3-pyridyl]-8,9-dihydro-7H-benzo[7]annulen-2-ol]: the pIC50 in experiment [1] (setting [7]) is 8.15; in experiment [2] (setting [7]), 6.95; in experiment [3] (setting [7]), 7.15; in experiment [4], 9.52; in experiment [5], 8.40; in experiment [6], 9.52. Also, the DC50 on ERα in MCF7 cells amounted to 0.5 nM. For the same compound, the “% Degradation at 3 μM” value on ERα in MCF7 cells was 87%.
For `Oc1ccc2c(c1)C(c1ccc(O[C@H]3CCN(CCCF)C3)cc1)=C(c1ccc(OC(F)(F)F)cc1)CC2` [Example 8, 8-[4-[(3S)-1-(3-fluoropropyl)pyrrolidin-3-yl]oxyphenyl]-7-[4-(trifluoromethoxy)phenyl]-5,6-dihydronaphthalen-2-ol], the pIC50 is 5.86 in experiment [1] (setting [7]); less than 5.40 in experiment [2] (setting [7]); less than 5.40 in experiment [3] (setting [7]); less than 6.00 in experiment [4]; less than 6.00 in experiment [5]; less than 6.00 in experiment [6]. Moreover, the DC50 at ERα in MCF7 cells was determined as 25 nM. Besides, the “% Degradation at 3 μM” value at ERα in MCF7 cells came to 84%.
With `Oc1ccc2c(c1)SCCC(c1ccc(OC(F)F)c(F)c1)=C2c1ccc(O[C@H]2CCN(CCCF)C2)cc1` [Example 191, 4-[4-(difluoromethoxy)-3-fluoro-phenyl]-5-[4-[(3S)-1-(3-fluoropropyl)pyrrolidin-3-yl]oxyphenyl]-2,3-dihydro-1-benzothiepin-8-ol], the pIC50 is 8.52 in experiment [1] (protocol with 3 nM estradiol); 7.29 in experiment [2] (protocol with 3 nM estradiol); 7.49 in experiment [3] (protocol with 3 nM estradiol); 9.52 in experiment [4]; 8.52 in experiment [5]; 9.40 in experiment [6]. Also, the DC50 on ERα in MCF7 cells came out at 0.2 nM. At ERα in MCF7 cells, the “% Degradation at 3 μM” value came out at 95%.
`COc1ccc(C2=C(c3ccc(O[C@H]4CCN(CCCF)C4)cc3)c3ccc(O)cc3OCC2)c(C)c1` [Example 157, 5-[4-[(3S)-1-(3-fluoropropyl)pyrrolidin-3-yl]oxyphenyl]-4-(4-methoxy-2-methyl-phenyl)-2,3-dihydro-1-benzoxepin-8-ol]: the pIC50 in experiment [1] (setting [7]) was 8.70; in experiment [2] (setting [7]), 7.25; in experiment [3] (setting [7]), 7.44; in experiment [4] it was 9.70; in experiment [5], 8.40; in experiment [6], 9.22. Moreover, the DC50 on ERα in MCF7 cells is 0.2 nM. Further, the “% Degradation at 3 μM” value on ERα in MCF7 cells was 90%.
`Oc1ccc2c(c1F)OCCC(c1ccc3c(c1)CCN3)=C2c1ccc(O[C@H]2CCN(CCCF)C2)cc1` [Example 107, 9-fluoro-5-[4-[(3S)-1-(3-fluoropropyl)pyrrolidin-3-yl]oxyphenyl]-4-indolin-5-yl-2,3-dihydro-1-benzoxepin-8-ol]: the pIC50 is 7.72 in experiment [1] (protocol with 3 nM estradiol); 7.10 in experiment [2] (protocol with 3 nM estradiol); 7.26 in experiment [3] (protocol with 3 nM estradiol); 7.72 in experiment [4]; 6.83 in experiment [5]; 7.48 in experiment [6]. Further, the DC50 on ERα in MCF7 cells turned out to be 2 nM. Also, the “% Degradation at 3 μM” value at ERα in MCF7 cells is 82%.
In the case of `Oc1ccc2c(c1)SCC(c1ccc3c(c1)OCCO3)=C2c1ccc(O[C@H]2CCN(CCCF)C2)cc1` [Example 28, 3-(2,3-dihydro-1,4-benzodioxin-6-yl)-4-[4-[(3S)-1-(3-fluoropropyl)pyrrolidin-3-yl]oxyphenyl]-2H-thiochromen-7-ol], the pIC50 in experiment [1] (setting [7]) is 8.40; in experiment [2] (setting [7]), 7.17; in experiment [3] (setting [7]), 7.39; in experiment [4] it was 9.15; in experiment [5], 7.96; in experiment [6] it was 8.70. Further, the DC50 on ERα in MCF7 cells was determined as 0.3 nM. Also, on ERα in MCF7 cells, the “% Degradation at 3 μM” value stood at 80%.
`COc1ccc(C2=C(c3ccc(O[C@H]4CCN(CCCF)C4)cc3)c3ccc(O)cc3SC2)c(F)c1` [Example 24, 3-(2-fluoro-4-methoxy-phenyl)-4-[4-[(3S)-1-(3-fluoropropyl)pyrrolidin-3-yl]oxyphenyl]-2H-thiochromen-7-ol]: the pIC50 in experiment [1] (setting [7]) was 8.30; in experiment [2] (setting [7]) it was 7.10; in experiment [3] (setting [7]), 7.36; in experiment [4] it was 9.52; in experiment [5], 8.22; in experiment [6] it was 9.05. The DC50 at ERα in MCF7 cells is 0.2 nM. Further, at ERα in MCF7 cells, the “% Degradation at 3 μM” value was 91%.

The record behind these values is US11149031B2, “Substituted N-(3-fluoropropyl)-pyrrolidine compounds, processes for their preparation and therapeutic uses thereof” (SANOFI, priority 2016, dated 2021).
